Data from article PMC12557437, “Research towards selective inhibition of the CLK3 kinase” (Beilstein Journal of Organic Chemistry, 2025).
Where “and” joins values, the source holds several entries; their conditions need not be identical. Equal entries are not always repeated.

Tests used:
[1] = target: Hs_CDK9/CyclinT (Homo sapiens, UniProt P50750); assay: primary screening, short panel of mammalian kinases; format: biochemical; details: ATP 10 µM, means, n = 2, read-out: Residual kinase activity Hs_CDK9/CyclinT
Hs_CDK9/CyclinT, sequence (P50750 whole entry): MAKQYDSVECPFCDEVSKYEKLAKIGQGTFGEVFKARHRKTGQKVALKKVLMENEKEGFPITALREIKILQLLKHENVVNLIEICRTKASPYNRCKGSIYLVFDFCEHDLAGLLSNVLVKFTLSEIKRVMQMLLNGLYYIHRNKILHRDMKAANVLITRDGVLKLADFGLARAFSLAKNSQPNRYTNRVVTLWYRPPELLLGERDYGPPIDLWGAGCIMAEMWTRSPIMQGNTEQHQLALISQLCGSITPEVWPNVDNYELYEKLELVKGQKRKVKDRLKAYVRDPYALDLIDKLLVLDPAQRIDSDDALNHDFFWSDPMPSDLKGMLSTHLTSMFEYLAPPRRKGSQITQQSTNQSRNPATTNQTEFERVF
Hs_CDK9/CyclinT, sequence (O60563 whole entry partner): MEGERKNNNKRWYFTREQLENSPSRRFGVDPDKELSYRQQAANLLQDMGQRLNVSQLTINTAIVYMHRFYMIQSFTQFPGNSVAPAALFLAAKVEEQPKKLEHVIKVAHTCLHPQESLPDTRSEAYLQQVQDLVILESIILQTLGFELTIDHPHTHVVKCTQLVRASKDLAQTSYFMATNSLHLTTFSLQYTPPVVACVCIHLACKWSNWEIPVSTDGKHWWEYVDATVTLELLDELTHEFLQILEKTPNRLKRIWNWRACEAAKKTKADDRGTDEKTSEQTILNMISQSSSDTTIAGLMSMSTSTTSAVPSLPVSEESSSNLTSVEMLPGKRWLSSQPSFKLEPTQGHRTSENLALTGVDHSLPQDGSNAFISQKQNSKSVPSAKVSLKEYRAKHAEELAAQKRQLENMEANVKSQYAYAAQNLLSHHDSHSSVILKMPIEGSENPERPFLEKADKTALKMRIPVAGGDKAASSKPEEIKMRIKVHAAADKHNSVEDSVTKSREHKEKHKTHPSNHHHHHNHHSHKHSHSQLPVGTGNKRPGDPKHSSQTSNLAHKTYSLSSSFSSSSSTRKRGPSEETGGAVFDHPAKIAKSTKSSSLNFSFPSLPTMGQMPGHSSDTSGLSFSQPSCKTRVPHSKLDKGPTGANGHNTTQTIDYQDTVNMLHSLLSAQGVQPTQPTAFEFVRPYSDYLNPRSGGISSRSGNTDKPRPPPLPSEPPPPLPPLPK
Description: (§1) Our molecules have been submitted first to a primary screening against a panel of eight disease-related kinases: five members of the CMGC (for CDK, MAPK, GSK3, and CLK) group (CDK5/p25, CDK9/CyclinT, GSK3β, CLK1 and DYRK1A), one CAMK (calmodulin/calcium regulated kinase PIM1), one CK1 (the casein kinase CK1ε), and haspin as a […] kinase.
(§2) Figure 4 Primary evaluation of the inhibition of the new quinazolines against a short panel of mammalian kinases. Residual kinase activities are expressed in % of maximal activity, i.e., measured in the absence of inhibitor but with an equivalent dose of DMSO (solvent of the tested compounds). ATP concentration used in the kinase assays was 10 µM (values are means, n = 2). Kinases are from human origin (Homo sapiens) except CLK1 (from Mus musculus) and DYRK1A (from Rattus norvegicus). […]

[2] = target: Hs_CK1ε (Homo sapiens, UniProt P49674); assay: as above; format: biochemical; details: ATP 10 µM, means, n = 2, read-out: Residual kinase activity Hs_CK1ε
Hs_CK1ε, sequence (P49674 whole entry): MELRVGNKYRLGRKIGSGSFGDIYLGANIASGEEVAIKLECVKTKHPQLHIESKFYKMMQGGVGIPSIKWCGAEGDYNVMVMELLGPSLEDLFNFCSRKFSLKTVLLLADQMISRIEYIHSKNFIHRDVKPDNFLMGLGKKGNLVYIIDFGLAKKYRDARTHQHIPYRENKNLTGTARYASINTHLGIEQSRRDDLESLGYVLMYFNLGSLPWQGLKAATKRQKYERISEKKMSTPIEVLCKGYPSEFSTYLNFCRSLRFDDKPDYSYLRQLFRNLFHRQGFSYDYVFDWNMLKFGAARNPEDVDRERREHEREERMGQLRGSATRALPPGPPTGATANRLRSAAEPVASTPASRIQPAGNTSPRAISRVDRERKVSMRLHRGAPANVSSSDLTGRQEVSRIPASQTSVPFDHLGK
Description: as §1, §2

[3] = target: Mm_CLK3 (Mus musculus, UniProt O35492); assay: radiometric γ33P-ATP kinase assay (Eurofins); format: biochemical; details: 15 µM ATP; dose-response, points in duplicate
Mm_CLK3, sequence (O35492 whole entry): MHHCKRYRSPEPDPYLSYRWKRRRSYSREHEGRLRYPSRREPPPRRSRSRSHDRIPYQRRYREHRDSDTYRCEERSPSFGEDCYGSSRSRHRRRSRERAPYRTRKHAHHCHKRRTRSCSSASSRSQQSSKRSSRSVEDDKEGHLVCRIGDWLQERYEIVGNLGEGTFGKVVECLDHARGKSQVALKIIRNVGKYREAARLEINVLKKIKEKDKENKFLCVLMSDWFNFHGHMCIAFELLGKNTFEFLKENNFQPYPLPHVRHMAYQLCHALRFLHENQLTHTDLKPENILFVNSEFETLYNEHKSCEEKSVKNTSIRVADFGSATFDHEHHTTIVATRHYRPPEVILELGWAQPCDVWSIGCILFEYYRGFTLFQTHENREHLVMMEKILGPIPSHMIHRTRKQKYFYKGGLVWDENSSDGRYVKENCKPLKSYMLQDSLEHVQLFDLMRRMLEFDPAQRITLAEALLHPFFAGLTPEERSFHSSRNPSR
Experimental: (§3) The results are reported in Table 2 and in Supporting Information File 1.
2- Kinase inhibition studies
Kinase enzymatic activities were assayed using both luminescent ADP detection assay
(ADP-GloTM assay kit, Promega, Madison, WI) or radiometric kinase assay. These
assays were performed using the protocols described in our previous publication. […]
1.Brahmaiah, D.; Kanaka Durga Bhavani, A.; Aparna, P.; Sampath Kumar, N.; Solhi,
H.; Le Guevel, R.; Baratte, B.; Ruchaud, S.; Bach, S.; Singh Jadav, S.; Raji Reddy, C.;
Roisnel, T.; Mosset, P.; Levoin, N.; Grée, R. Bioorg.
R.; Baratte, B.; Robert, T.; Ruchaud, S.; Bach, S.; Jadav, S. S.; Reddy, C. R.; Mosset,
P.; Gouault, N.; Levoin, N.; Grée, R. Molecules 2022, 27, 6149. […]

[4] = target: CLK1, CLK2, and CLK4; assay: radiometric kinase assay, summary for the other CLKs; format: biochemical, mouse; details: Table 2; read-out: inhibition of CLK1, CLK2, and CLK4 (best value)
Description: as §3

remaining activity at 1 µM ([1]; compound 1 μM): 83%
remaining activity at 10 µM ([1]; compound 10 μM): 47%
remaining activity at 1 µM ([2]; compound 1 μM): ≥ 100%
remaining activity at 10 µM ([2]; compound 10 μM): ≥ 100%
IC50 [3]: 0.3 µM and 0.303 µM
IC50 [4]: 0.06 µM
Compound: Cc1ccc(-n2cc(COc3cccc4cnc(Nc5cc(Cl)cc(-c6cccc(C(=O)O)c6)c5)nc34)nn2)c([N+](=O)[O-])c1 [Compound 13b]
